The values below come from PubChem BioAssay AID449748 (Broad Institute, 2010).

The structures appear in SMILES notation. Results filed as inconclusive are left out.

The assay concerns cancer stem cell-like cells viability, luminescence. The experiment in a line: PubChem AID 449748.

With `O=[N+]([O-])c1ccc(Cl)c([N+](=O)[O-])c1`, the AC50 is 4.77 µM.
